# Data: article PMC6207684, “Structural reorganization of SHP2 by oncogenic mutations and implications for oncoprotein resistance to allosteric inhibition” (Nature Communications, 2018)
# Residue numbers refer to the chain shown, from its start. Where a SMILES comes first, the peptide text is derived from it. [ ]: non-standard residue; d: D form. pY = N[C@@H](Cc1ccc(OP(=O)(O)O)cc1)C(=O)O; PEG8 = NCCOCCOCCOCCOCCOCCOCCOCCOCCC(=O)O
# Experiments:
# Assay in all cases: SHP2 phosphatase activity upon p-IRS-1 peptide stimulation (DiFMUP)
# Format in all cases: biochemical
# Details in all cases: 200 μM DiFMUP, read-out: pIRS-1 AC50
# SHP2^WT = target: T1, SHP2^WT (Homo sapiens, UniProt Q06124)
# T1 construct: made in house
# T1 sequence (Q06124 1-593): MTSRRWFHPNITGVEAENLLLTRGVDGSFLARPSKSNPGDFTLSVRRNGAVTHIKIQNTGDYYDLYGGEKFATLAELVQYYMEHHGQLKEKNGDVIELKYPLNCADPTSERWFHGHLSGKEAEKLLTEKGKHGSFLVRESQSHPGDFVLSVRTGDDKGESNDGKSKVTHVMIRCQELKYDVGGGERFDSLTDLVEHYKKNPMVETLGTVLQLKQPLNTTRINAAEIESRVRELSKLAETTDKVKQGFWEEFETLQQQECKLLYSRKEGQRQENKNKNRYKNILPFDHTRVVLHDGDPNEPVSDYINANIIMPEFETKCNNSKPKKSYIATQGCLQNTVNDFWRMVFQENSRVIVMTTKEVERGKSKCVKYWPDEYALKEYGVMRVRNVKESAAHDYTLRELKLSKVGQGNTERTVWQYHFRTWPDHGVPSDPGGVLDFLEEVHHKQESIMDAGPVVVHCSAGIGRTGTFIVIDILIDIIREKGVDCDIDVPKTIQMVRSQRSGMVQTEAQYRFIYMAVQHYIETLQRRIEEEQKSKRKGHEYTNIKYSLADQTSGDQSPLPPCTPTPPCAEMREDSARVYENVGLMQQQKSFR
# Method: (§1) Wild-type and mutant SHP2 proteins were diluted to 0.1 nM and treated with either varying concentrations of diphosphorylated IRS-1 peptide (pY1172-Peg-PY1222, SLNY(p)IDLDLVK-dPEG8-LSTY(p)ASINFQK), or for maximal activation, 10 μM pY1172-Peg-PY1222. Phosphatase activity was measured through the dephosphorylation DiFMUP (200 μM, ex. 385, em. 450 nm) on a Spectramax M5 plate reader and converted to product (DiFMU)/time by preparing a standard curve of DiFMU/DiFMUP. Velocity data were fit to the following three-parameter dose–response curve (Eq. (2)) to extrapolate EC50 values:2 V=Basal+Max-Basal∕1+10^LogEC50-S Where V represents enzyme velocity, Basal is basal response, Max is maximal response, [S] is substrate concentration, and EC50 is the substrate concentration that yields response half way between basal and maximal.
# SHP2^G60V = target: T2, SHP2^G60V (Homo sapiens, UniProt Q06124, G60V)
# T2 construct: made in house
# T2 sequence (Q06124 1-593 G60V): T1 sequence (Q06124 1-593) with G60V
# Method: as §1
# SHP2^F285S = target: T3, SHP2^F285S (Homo sapiens, UniProt Q06124, F285S)
# T3 construct: made in house
# T3 sequence (Q06124 1-593 F285S): T1 sequence (Q06124 1-593) with F285S
# Method: as §1
# SHP2^S502P = target: T4, SHP2^S502P (Homo sapiens, UniProt Q06124, S502P)
# T4 construct: made in house
# T4 sequence (Q06124 1-593 S502P): T1 sequence (Q06124 1-593) with S502P
# Method: as §1
# SHP2^D61V = target: T5, SHP2^D61V (Homo sapiens, UniProt Q06124, D61V)
# T5 construct: made in house
# T5 sequence (Q06124 1-593 D61V): T1 sequence (Q06124 1-593) with D61V
# Method: as §1
smiles,measurement,setting,value
"CC[C@H](C)[C@H](NC(=O)[C@H](CO)NC(=O)[C@H](C)NC(=O)[C@H](Cc1ccc(OP(=O)(O)O)cc1)NC(=O)[C@@H](NC(=O)[C@H](CO)NC(=O)[C@H](CC(C)C)NC(=O)CCOCCOCCOCCOCCOCCOCCOCCOCCNC(=O)[C@H](CCCCN)NC(=O)[C@@H](NC(=O)[C@H](CC(C)C)NC(=O)[C@H](CC(=O)O)NC(=O)[C@H](CC(C)C)NC(=O)[C@H](CC(=O)O)NC(=O)[C@@H](NC(=O)[C@H](Cc1ccc(OP(=O)(O)O)cc1)NC(=O)[C@H](CC(N)=O)NC(=O)[C@H](CC(C)C)NC(=O)[C@@H](N)CO)[C@@H](C)CC)C(C)C)[C@@H](C)O)C(=O)N[C@@H](CC(N)=O)C(=O)N[C@@H](Cc1ccccc1)C(=O)N[C@@H](CCC(N)=O)C(=O)N[C@@H](CCCCN)C(=O)O [pIRS-1, SLNY(p)IDLDLVK-dPEG8-LSTY(p)ASINFQK] (H-SLN[pY]IDLDLVK[PEG8]LST[pY]ASINFQK-OH)",AC50,SHP2^WT,247 ± 18 nM
same,AC50,SHP2^G60V,9 ± 2 nM
same,AC50,SHP2^F285S,18 ± 2 nM
same,AC50,SHP2^S502P,5 ± 2 nM
same,AC50,SHP2^D61V,4 ± 1 nM
